Reference: patent publication US20030191323A1, “Hypoglycemic agent” (Ajinomoto Co., Inc., priority 2000, published 2003)

Tests used:
[1] = system: Rat skeletal muscle cell strain L6 cells; test: Effect of accelerating the glucose uptake in cultured skeletal muscle cells ([3H]-2-deoxyglucose uptake); format: cell-based; settings: 10 min, 10 μM compound, cultured overnight, 2DG uptake in L6 myotubes, 37° C. 10 minutes, compared with the control group
Procedure: Effect of accelerating the glucose uptake in cultured skeletal muscle cells: Method: Rat skeletal muscle cell strain “L6 cells” in a confluent state was cultured in DME medium containing 2% of fetal calf serum for one week to differentiate into myotubes. The medium was replaced with the DME medium containing a compound synthesized in each of the above Reference Examples. After culturing overnight followed by the thorough washing with HEPES buffer solution, an HEPES buffer solution containing 37 kBq/ml of 10 μM [3H]-2-deoxyglucose (2DG) was added thereto. After the culture at 37° C. for 10 minutes, the radioactivity of 2DG transmigrated into the cells was determined. The effect (%) of each compound on 2DG uptake was determined as compared with that in the control group.

Row | Compound | melting point [°C] | activity at 10 µM [1] [%]
1 | CCCCCCCCNC(=O)NS(=O)(=O)c1ccccc1NC(=O)c1cccc(OCc2ccccc2)c1 | 124 to 125 | –
2 | O=C(Nc1ccccc1S(=O)(=O)NC(=O)c1ccc(C(F)(F)F)cc1)c1cccc(OCc2ccccc2)c1 [compound 5, N-[2-(3-Benzyloxybenzamido)benzenesulfonyl]-4-trifluoromethylbenzamide] | 220 to 221 | –
3 | CCCCCC(=O)NS(=O)(=O)c1ccccc1NC(=O)c1cccc(OCc2ccccc2)c1 [compound 9, N-[2-(3-Benzyloxybenzamido)benzenesulfonyl]-n-hexanamide] | 133 to 134 | –
4 | CCCCNC(=O)NS(=O)(=O)c1ccccc1NC(=O)c1cccc(OCc2ccccc2)c1 | 177 to 178 | –
5 | CCCCCCCCCC(=O)NS(=O)(=O)c1ccccc1NC(=O)c1cccc(OCc2ccccc2)c1 [compound 10, N-[2-(3-Benzyloxybenzamido)benzenesulfonyl]-decanamide] | 85 to 86 | –
6 | O=C(Nc1ccccc1S(=O)(=O)NC(=O)c1cccc(OCc2ccccc2)c1)c1cccc(OCc2ccccc2)c1 [compound 2, N-[2-(3-Benzyloxybenzamido)benzenesulfonyl]-3-benzyloxybenzamide] | 172 to 173 | –
7 | CC/C=C/CC(=O)NS(=O)(=O)c1ccccc1NC(=O)c1ccc(C#Cc2ccccc2)cc1 [compound 54, Trans-N-[2-(4-phenylethynylbenzamido)benzenesulfonyl]-3-hexenamide] | – | 118
8 | O=C(Nc1ccccc1S(=O)(=O)NC(=O)c1ccccc1)c1cccc(OCc2ccccc2)c1 [compound 3, N-[2-(3-Benzyloxybenzamido)benzenesulfonyl]-benzamide] | 201 to 202 | –
9 | O=C(Nc1ccccc1S(=O)(=O)NC(=O)c1ccc([N+](=O)[O-])cc1)c1cccc(OCc2ccccc2)c1 [compound 6, N-[2-(3-benzyloxybenzamido)benzenesulfonyl]-4-nitrobenzamide] | 233 to 234 | –
10 | CC(C)(C)c1ccc(COc2cccc(C(=O)Nc3ccccc3S(=O)(=O)NC(=O)/C=C/c3ccccc3)c2)cc1 [compound 15, N-[2-[3-(4-t-butylbenzyloxy)benzamido]benzenesulfonyl]cinnamamide] | 110 to 111 | –
11 | CC(C)(C)C(=O)NS(=O)(=O)c1ccccc1NC(=O)c1cccc(OCc2ccc(C(C)(C)C)cc2)c1 [compound 14, N-[2-[3-(4-t-butylbenzyloxy)benzamido]benzenesulfonyl]pivalamide] | 193 to 194 | –
12 | CCCCCC(=O)NS(=O)(=O)c1ccccc1NC(=O)c1cccc(OCc2ccc(Cl)cc2)c1 [compound 22, N-[2-[3-(4-Chlorobenzyloxy)benzamido]benzenesulfonyl]hexanamide] | 148 to 149 | –
13 | CC(=O)NS(=O)(=O)c1ccccc1NC(=O)c1cccc(OCc2ccc([N+](=O)[O-])cc2)c1 [compound 25, N-[2-[3-(4-Nitrobenzyloxy)benzamido]benzenesulfonyl]acetamide] | 189 to 192 | –
14 | CCCCCCCCCC(=O)NS(=O)(=O)c1ccccc1NC(=O)c1ccc([N+](=O)[O-])c(OCc2ccccc2)c1 [compound 19, N-[2-(3-benzyloxy-4-nitrobenzamido)benzenesulfonyl]decanamide] | 129 to 130 | –
15 | CCCCCCCCCC(=O)NS(=O)(=O)c1ccccc1NC(=O)c1cccc(OCc2ccc(Cl)cc2)c1 [compound 23, N-[2-[3-(4-Chlorobenzyloxy)benzamido]benzenesulfonyl]decanamide] | 159 to 161 | –
16 | O=C(NS(=O)(=O)c1ccccc1NC(=O)c1cccc(OCc2ccccc2)c1)Oc1ccccc1 | 163 to 164 | –
17 | CC(=O)NS(=O)(=O)c1ccccc1NC(=O)c1cccc(OCc2ccccc2)c1 [compound 4, N-[2-(3-Benzyloxybenzamido)benzenesulfonyl]acetamide] | 195 to 196 | –
18 | COc1ccc(C(=O)NS(=O)(=O)c2ccccc2NC(=O)c2cccc(OCc3ccccc3)c2)cc1 [compound 7, N-[2-(3-benzyloxybenzamido)benzenesulfonyl]-4-methoxybenzamide] | 189 to 190 | –

Second part, led by results:

Row | melting point [°C] | Compound | activity at 10 µM [1] [%]
19 | 145 to 148 | CCCCCCCCCC(=O)NS(=O)(=O)c1ccccc1NC(=O)c1cccc(OCc2ccc([N+](=O)[O-])cc2)c1 [compound 27, N-[2-[3-(4-nitrobenzyloxy)benzamido]benzenesulfonyl]decanamide] | –
20 | 190 to 191 | CC(=O)NS(=O)(=O)c1ccccc1NC(=O)c1cccc(OCc2ccc(C(C)(C)C)cc2)c1 [compound 36, N-[2-[3-(4-t-Butylbenzyloxy)benzamido]benzenesulfonyl]acetamide] | –
21 | 114 to 117 | COc1ccc(COc2cccc(C(=O)Nc3ccccc3S(=O)(=O)NC(C)=O)c2)cc1 [compound 29, N-[2-[3-(4-Methoxybenzyloxy)benzamido]benzenesulfonyl]acetamide] | –
22 | 112 to 113 | CCCCCC(=O)NS(=O)(=O)c1ccccc1NC(=O)c1cccc(OCC2CCCCC2)c1 [compound 34, N-[2-(3-cyclohexylmethoxybenzamido)benzenesulfonyl]hexanamide] | 145
23 | 124 to 127 | CCCCCCCCCC(=O)NS(=O)(=O)c1ccccc1NC(=O)c1cccc(OCC2CCCCC2)c1 [compound 35, N-[2-(3-Cyclohexylmethoxybenzamido)benzenesulfonyl]decanamide] | –
24 | 208 to 209 | C/C=C/C=C/C(=O)NS(=O)(=O)c1ccccc1NC(=O)c1ccc(C#Cc2ccccc2)cc1 [compound 53, Trans-N-[2-(4-phenylethynylbenzamido)benzenesulfonyl]-2,4-hexadienamide] | –
25 | 200 to 201 | CCCCCCCOc1cccc(C(=O)Nc2ccccc2S(=O)(=O)NC(=O)CCCCC)c1 [compound 45, N-[2-(3-Heptyloxybenzamido)benzenesulfonyl]hexanamide] | –
26 | 164 | CCCCCCCCCC(=O)NS(=O)(=O)c1ccccc1NC(=O)c1cccc(OCc2ccc(C(F)(F)F)cc2)c1 [compound 42, N-[2-[3-(4-Trifluoromethylbenzyloxy)benzamido]benzenesulfonyl]decanamide] | –
27 | 148 to 149 | CCCCCCCCCC(=O)NS(=O)(=O)c1ccccc1NC(=O)c1cccc(OCc2ccc(OC)cc2)c1 [compound 31, N-[2-[3-(4-Methoxybenzyloxy)benzamido]benzenesulfonyl]decanamide] | –
28 | 187 to 188 | CC(C)=CC(=O)NS(=O)(=O)c1ccccc1NC(=O)c1ccc(C#Cc2ccccc2)cc1 [compound 52, 3-Methyl-N-[2-(4-phenylethynylbenzamido)benzenesulfonyl]-2-butenamide] | –
29 | 142 to 143 | CCCCCC(=O)NS(=O)(=O)c1ccccc1NC(=O)c1cccc(OCc2ccc(C(F)(F)F)cc2)c1 [compound 41, N-[2-[3-(4-Trifluoromethylbenzyloxy)benzamido]benzenesulfonyl]hexanamide] | 230
30 | 164 to 167 | CC(=O)NS(=O)(=O)c1ccccc1NC(=O)c1cccc(OCC2CCCCC2)c1 [compound 33, N-[2-(3-Cyclohexylmethoxybenzamido)benzenesulfonyl]acetamide] | –
31 | 194 to 195 | CCCCCCCOc1cccc(C(=O)Nc2ccccc2S(=O)(=O)NC(C)=O)c1 [compound 44, N-[2-(3-Heptyloxybenzamido)benzenesulfonyl]acetamide] | –
32 | 132 to 133 | CCCCCCCCCC(=O)NS(=O)(=O)c1ccccc1NC(=O)c1cccc(OCc2ccc(C(C)(C)C)cc2)c1 [compound 38, N-[2-[3-(4-t-Butylbenzyloxy)benzamido]benzenesulfonyl]decanamide] | –
33 | 214 to 215 | CC(=O)NS(=O)(=O)c1ccccc1NC(=O)c1ccc(C#Cc2ccccc2)cc1 [compound 48, N-[2-(4-Phenylethynylbenzamido)benzenesulfonyl]acetamide] | –
34 | 236 to 237 | CC(C)(C)C(=O)NS(=O)(=O)c1ccccc1NC(=O)c1ccc(C#Cc2ccccc2)cc1 [compound 51, N-[2-(4-Phenylethynylbenzamido)benzenesulfonyl]pivalamide] | 225
35 | 138 to 141 | CCCCCC(=O)NS(=O)(=O)c1ccccc1NC(=O)c1cccc(OCc2ccc([N+](=O)[O-])cc2)c1 [compound 26, N-[2-[3-(4-Nitrobenzyloxy)benzamido]benzenesulfonyl]hexanamide] | 134
36 | 163 to 164 | CCCCCC(=O)NS(=O)(=O)c1ccccc1NC(=O)c1cccc(OCc2ccc(C(C)(C)C)cc2)c1 [compound 37, N-[2-[3-(4-t-Butylbenzyloxy)benzamido]benzenesulfonyl]hexanamide] | –
37 | 154 to 157 | CCCCCC(=O)NS(=O)(=O)c1ccccc1NC(=O)c1cccc(OCc2ccc(OC)cc2)c1 [compound 30, N-[2-[3-(4-Methoxybenzyloxy)benzamido]benzenesulfonyl]hexanamide] | 131
38 | 155 to 156 | CCCCCCCCCC(=O)NS(=O)(=O)c1ccccc1NC(=O)c1ccc(C#Cc2ccccc2)cc1 [compound 50, N-[2-(4-Phenylethynylbenzamido)benzenesulfonyl]decanamide] | –
